According to patent US9573956B2, “Compounds as dual inhibitors of phosphodiesterases and histone deacetylases” (FUNDACIÓN PARA LA INVESTIGACIÓN MÉDICA APLICADA, priority 2013, dated 2017):
Marks after values point to notes of the source that are not given here.

How the values were obtained:
[1] = Pharmacokinetics, plasma and brain concentrations in wild type mice; format: in vivo; details: mouse, ip; for CMax (brain; nmol/Kg): in vivo; for Tmax / Cmax: single intraperitoneal injection, wild type mice; for Tmax: time of maximum concentration in brain; for Cmax: plasma, at tMax, (Standard Deviation)
Protocol: Plasma and brain samples for measuring compounds concentrations were collected at predetermined times from four wild type mice per point. Three time points were measured: 0.25, 0.5 and 1.0 hour. Compounds concentration was measured using a Xevo-TQ MS triple quadropole mass spectrometer with an electrospray ionization (ESI) source and an Acquity UPLC (Waters, Manchester, UK).
[…]. Compounds were injected as a single intraperitoneal injection. Animals were killed by decapitation.
Plasma. Blood was collected into tubes containing EDTA and plasma was collected via centrifugation (4° C., 13200 rpm, 5 min) and stored at −80° C. until analysis.
Brain. Brains were collected immediately after mice death. The brains were excised, weighed and frozen at −80° C. until further process for analysis.
Chromatographic separation was performed by gradient elution at 0.4 mL/min using an Acquity UPLC BEH C18 column (100×2.1 mm, 1.7 μm particle size; Waters). The mobile phase consisted of A: water with 0.1% formic acid, B: methanol with 0.1% formic acid. After 1.5 min at the initial condition of 95% A, solvent B was increased from 5% to 100% over 2 min, maintained at 100% for 1.5 min, then a linear gradient to initial conditions was applied for 0.1 min and maintained for 3.4 minutes to re-equilibrate the column, giving a cycle time of 8.5 min. The autosampler temperature was set at 10° C. and column temperature at 45° C.
Compounds were monitored using a triple quadrupole mass spectrometer equipped with an electrospray ionization interface. For detection and quantification, a capillary voltage of 3.5 kV and a cone voltage of 38 V were used. Source and desolvation temperatures were 150° C. and 650° C., respectively. Ultra-high purity nitrogen was used for cone gas (75 L h^−1) and desolvation gas (1000 L h^−1). The electrospray ionization operated in the positive mode, and the collision gas used was ultra-pure argon at a flow rate of 0.15 mL min^−1.
Quantification was achieved by external calibration using matrix-matched standards. Concentrations were calculated using a weighted least-squares linear regression (W=1/×). […]. The mixture was then agitated for 10 min and centrifuged at 13200 rpm for 5 min at 4° C. The resulting supernatants were transferred to a Ostro plate (Waters, Manchester, UK), designed to remove phospholipids. The resulting eluents were evaporated at 37° C. under a stream of nitrogen. Residues were dissolved in 75 μL of a mixture of methanol and water (50:50, v:v). A 10-uL aliquot of the resulting solution was injected onto the LC-MS/MS system for analysis. Frozen plasma samples were thawed at room temperature, vortexed thoroughly and subjected to the above described extraction procedure. Brain samples were thawed unassisted at room temperature and homogenized using a Branson 250 ultrasonic sonifier (Branson, Danbury, Conn., USA). When homogenized, 75 mg were weighted and extracted as described previously.
Concentration values obtained from the LC-MS/MS analyses are described in Table 4.

AcH3 = experiment: In-vivo activity, hippocampus of wild type mice: AcH3; design: species or system mouse; details: i.p. 40 mg/kg, hippocampus one hour later
Protocol: (§1) To determine the ability of the compounds to inhibit HDAC and PDE in the brain, the compound was administered to wild type mice by i.p. at a dose of 40 mg/kg (n=3). Another group of animals received the vehicle (1/1/8, v:v:v, DMSO/Tween 20/saline). One hour later, mice were sacrificed by cervical dislocation and their hippocampus was quickly dissected from the brains.
(§2) Total tissue homogenates were obtained by homogenizing the hippocampus in a cold lysis buffer with protease inhibitors (0.2 M NaCl, 0.1 M HEPES, 10% glycerol, 200 mM NaF, 2 mM Na4P2O7, 5 mM EDTA, 1 mM EGTA, 2 mM DTT, 0.5 mM PMSF, 1 mM Na3VO4 and Complete Protease Inhibitor Cocktail, Roche Diagnostics). The homogenate was then centrifuged at 14,000×g at 4° C. for 20 min and the supernatant aliquoted and stored at −80° C. Total protein concentrations were determined using the BioRad Bradford protein assay (BioRad Laboratories). Protein samples were analyzed as described in the “in vitro” section.

PDE5A = molecular target: T1, PDE5A (Homo sapiens, UniProt O76074); experiment: PDE enzyme activity assay (HTRF cGMP), PDE5A; format: biochemical; details: recombinant enzyme; read-out: PDE5A1 inhibition (IC50)
T1 construct: they are full-length with N-terminal GST tag; GST (N); purchased BPS Biosciences 60050; host or cells: baculovirus infected Sf9 cells

pCREB = experiment: In-vivo activity, hippocampus of wild type mice: pCREB; design: species or system mouse; details: i.p. 40 mg/kg, hippocampus one hour later
Protocol: as §1, §2

| CMax (brain; nmol/Kg) ([1]; 40 mg/kg) | Tmax ([1]; dosage 40 mg/Kg) [min] | Cmax ([1]; dosage 40 mg/Kg) [nM] | IC50 (PDE5A) [nM] | CMax (brain; nmol/Kg) ([1]; 20 mg/kg) | Tmax ([1]; dosage 20 mg/Kg) [min] | Cmax ([1]; dosage 20 mg/Kg) [nM] | SMILES | AcH3, increment in biological response vs basal (AcH3) | pCREB, increment in biological response vs basal (pCREB) |
| --- | --- | --- | --- | --- | --- | --- | --- | --- | --- |
| 609 (178)^c nmol/Kg | 15 | 15800 | 10 to 1000 | – | – | – | CCCc1nn(C)c2c(=O)[nH]c(-c3cc(CC4CC(C(=O)NO)C4)ccc3OCC)nc12 (racemic) [Example 1-19, 3-[[4-ethoxy-3-(1-methyl-7-oxo-3-propyl-6H-pyrazolo[4,3-d]pyrimidin-5-yl)phenyl]methyl]cyclobutanecarbohydroxamic acid] | +++ (basal×2≦(+++)<basal×3) | +++ (basal×2≦(+++)<basal×3) |
| – | – | – | < 10 | 5.8 (1.8)^c nmol/Kg | 15 | 283 | CCCc1nn(C)c2c(=O)[nH]c(-c3cc(S(=O)(=O)N4CCN(c5ncc(C(=O)NO)cn5)CC4)ccc3OCC)nc12 [Example 1-06, 2-(4-[3-(6,7-Dihydro-1-methyl-7-oxo-3-propyl-1H-pyrazolo[4,3-d]pyrimidin-5-yl)-4-ethoxyphenylsulfonyl]piperazin-1-yl)-N-hydroxypyrimidine-5-carboxamide] | +++ (basal×2≦(+++)<basal×3) | +++ (basal×2≦(+++)<basal×3) |
| – | – | – | 10 to 1000 | 29 (8)^c nmol/Kg | 15 | 653 | CCCc1nn(C)c2c(=O)[nH]c(-c3cc(Cc4ccc(C(=O)NO)cc4)ccc3OCC)nc12 [Example 1-15, 4-[[4-ethoxy-3-(1-methyl-7-oxo-3-propyl-6H-pyrazolo[4,3-d]pyrimidin-5-yl)phenyl]methyl]benzenecarbohydroxamic acid] | + (basal×1 means no increment (+)) | + (basal×1 means no increment (+)) |
| – | – | – | 10 to 1000 | 102 (7)^c nmol/Kg | 30 | 11800 | CCCc1nn(C)c2c(=O)[nH]c(-c3cc(Cc4ccc(C(=O)NO)s4)ccc3OCC)nc12 [Example 1-16] | ++ (basal×1≦(++)<basal×2) | + (basal×1 means no increment (+)) |
